Measurements as given in patent publication US12139499B2, “Heteroaryl compounds for treating Huntington's disease” (PTC THERAPEUTICS, INC., priority 2018, dated 2024).

Tested on: Endogenous Huntingtin Protein
Experiment: Endogenous Huntingtin Protein Assay (ELISA-based MSD electrochemiluminescence)
Assay type: cell-based
Conditions: Table 1
Outline: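 Huntingtin was captured overnight at 4 °C on plates coated with 1 μg/mL MW1 (polyQ-expanded) or MAB2166 antibody and BSA-blocked. Detection used a rabbit monoclonal and then a SULFO-TAG goat anti-rabbit antibody (0.25 μg/mL, 1 h each, room temperature). Signal was read by electrochemiluminescence.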

| SMILES | IC50 [µM] |
| --- | --- |
| Cc1cn2cc(-c3ncc4nc(N(C)C5C[C@H]6CCC[C@@H](C5)N6)sc4n3)cc(F)c2n1 (stereo partly drawn) [Compound 257, N-[(1R,5S)-9-azabicyclo[3.3.1]non-3-yl]-5-(8-fluoro-2-methylimidazo[1,2-a]pyridin-6-yl)-N-methyl[1,3]thiazolo[5,4-d]pyrimidin-2-amine] | ≤ 0.1 |
| Cc1cn2nc(-c3cc(F)c4nc(N(C)[C@H]5CCN[C@@H](C)C5)sc4c3)ccc2n1 [Compound 258, 4-fluoro-N-methyl-6-(2-methylimidazo[1,2-b]pyridazin-6-yl)-N-[(2S,4S)-2-methylpiperidin-4-yl]-1,3-benzothiazol-2-amine] | ≤ 0.1 |
| Cc1cn2nc(-c3cc(F)c4nc(N(C)[C@@H]5CCN[C@@H](C)C5)sc4c3)ccc2n1 [Compound 259, 4-fluoro-N-methyl-6-(2-methylimidazo[1,2-b]pyridazin-6-yl)-N-[(2S,4R)-2-methylpiperidin-4-yl]-1,3-benzothiazol-2-amine] | ≤ 0.1 |
| Cc1cn2cc(-c3cc4sc(N(C)C5CC6CCCC(C5)N6)nc4cn3)ccc2n1 (stereo not shown) [Compound 260, N-(9-azabicyclo[3.3.1]non-3-yl)-N-methyl-6-(2-methylimidazo[1,2-a]pyridin-6-yl)[1,3]thiazolo[4,5-c]pyridin-2-amine] | ≤ 0.1 |
| Cc1cn2cc(-c3cc4sc(N(C)C5CC6CCCC(C5)N6)nc4cn3)cc(C)c2n1 (stereo not shown) [Compound 261, N-(9-azabicyclo[3.3.1]non-3-yl)-6-(2,8-dimethylimidazo[1,2-a]pyridin-6-yl)-N-methyl[1,3]thiazolo[4,5-c]pyridin-2-amine] | ≤ 0.1 |
| CN(c1nc2cnc(-c3ccc4nn(C)cc4c3)cc2s1)C1CC2CCCC(C1)N2 (stereo not shown) [Compound 262, N-(9-azabicyclo[3.3.1]non-3-yl)-N-methyl-6-(2-methyl-2H-indazol-5-yl)[1,3]thiazolo[4,5-c]pyridin-2-amine] | ≤ 0.1 |
| Cc1cc(-c2cc3sc(N(C)C4CC5CCCC(C4)N5)nc3cn2)cc2cn(C)nc12 (stereo not shown) [Compound 263, N-(9-azabicyclo[3.3.1]non-3-yl)-6-(2,7-dimethyl-2H-indazol-5-yl)-N-methyl[1,3]thiazolo[4,5-c]pyridin-2-amine] | ≤ 0.1 |
| COc1cc(-c2cc3sc(N(C)C4CC5CCCC(C4)N5)nc3cn2)cc2cn(C)nc12 (stereo not shown) [Compound 264, N-(9-azabicyclo[3.3.1]non-3-yl)-6-(7-methoxy-2-methyl-2H-indazol-5-yl)-N-methyl[1,3]thiazolo[4,5-c]pyridin-2-amine] | ≤ 0.1 |
| Cc1cn2cc(-c3ncc4nc(N(C)C5CC(C)(C)NC(C)(C)C5)sc4n3)cc2c(C)n1 [Compound 265, 5-(1,3-dimethylpyrrolo[1,2-a]pyrazin-7-yl)-N-methyl-N-(2,2,6,6-tetramethylpiperidin-4-yl)[1,3]thiazolo[5,4-d]pyrimidin-2-amine] | ≤ 0.1 |
| Cc1cn2cc(-c3cc4sc(NC5CC(C)(C)N(C)C(C)(C)C5)nc4cn3)cc(C#N)c2n1 [Compound 266, 2-methyl-6-{2-[(1,2,2,6,6-pentamethylpiperidin-4-yl)amino][1,3]thiazolo[4,5-c]pyridin-6-yl}imidazo[1,2-a]pyridine-8-carbonitrile] | 0.1 to 0.5 |
| Cc1cn2cc(-c3cc4sc(NC5CC(C)(C)N(C)C(C)(C)C5)nc4cn3)cc(F)c2n1 [Compound 267, 6-(8-fluoro-2-methylimidazo[1,2-a]pyridin-6-yl)-N-(1,2,2,6,6-pentamethylpiperidin-4-yl)[1,3]thiazolo[4,5-c]pyridin-2-amine] | 0.1 to 0.5 |
| CN1C(C)(C)CC(Nc2nc3cnc(-c4cc(C#N)c5nn(C)cc5c4)cc3s2)CC1(C)C [Compound 268, 2-methyl-5-{2-[(1,2,2,6,6-pentamethylpiperidin-4-yl)amino][1,3]thiazolo[4,5-c]pyridin-6-yl}-2H-indazole-7-carbonitrile] | 0.1 to 0.5 |
| CN1C(C)(C)CC(Nc2nc3cnc(-c4cc(F)c5nn(C)cc5c4)cc3s2)CC1(C)C [Compound 269, 6-(7-fluoro-2-methyl-2H-indazol-5-yl)-N-(1,2,2,6,6-pentamethylpiperidin-4-yl)[1,3]thiazolo[4,5-c]pyridin-2-amine] | 0.1 to 0.5 |
| Cc1cn2cc(-c3cc4sc(N(C)C5CC6CCCC(C5)N6C)nc4cn3)cc(C#N)c2n1 (stereo not shown) [Compound 270, 2-methyl-6-{2-[methyl(9-methyl-9-azabicyclo[3.3.1]non-3-yl)amino][1,3]thiazolo[4,5-c]pyridin-6-yl}imidazo[1,2-a]pyridine-8-carbonitrile] | ≤ 0.1 |
| Cc1cn2cc(-c3cc4sc(N(C)C5CC6CCCC(C5)N6C)nc4cn3)cc(F)c2n1 (stereo not shown) [Compound 271, 6-(8-fluoro-2-methylimidazo[1,2-a]pyridin-6-yl)-N-methyl-N-(9-methyl-9-azabicyclo[3.3.1]non-3-yl)[1,3]thiazolo[4,5-c]pyridin-2-amine] | 0.1 to 0.5 |
| CN(c1nc2cnc(-c3cc(C#N)c4nn(C)cc4c3)cc2s1)C1CC2CCCC(C1)N2C (stereo not shown) [Compound 272, 2-methyl-5-{2-[methyl(9-methyl-9-azabicyclo[3.3.1]non-3-yl)amino][1,3]thiazolo[4,5-c]pyridin-6-yl}-2H-indazole-7-carbonitrile] | 0.1 to 0.5 |

| SMILES | IC50 [µM] |
| --- | --- |
| CN(c1nc2cnc(-c3cc(F)c4nn(C)cc4c3)cc2s1)C1CC2CCCC(C1)N2C (stereo not shown) [Compound 273, 6-(7-fluoro-2-methyl-2H-indazol-5-yl)-N-methyl-N-(9-methyl-9-azabicyclo[3.3.1]non-3-yl)[1,3]thiazolo[4,5-c]pyridin-2-amine] | 0.5 to 1 |
| CN(c1nc2ncc(-c3ccc(-c4cn[nH]c4)cc3O)nc2s1)C1CCNCC1 [Compound 274, 2-{2-[methyl(piperidin-4-yl)amino][1,3]thiazolo[4,5-b]pyrazin-6-yl}-5-(1H-pyrazol-yl)phenol] | ≤ 0.1 |
| Cc1nc2c(C#N)cc(-c3ncc4nc(N(C)C5CC(C)(C)NC(C)(C)C5)sc4n3)cc2o1 [Compound 275, 2-methyl-6-{2-[methyl(2,2,6,6-tetramethylpiperidin-4-yl)amino][1,3]thiazolo[5,4-d]pyrimidin-5-yl}-1,3-benzoxazole-4-carbonitrile] | ≤ 0.1 |
| Cc1cn2cc(-c3ccc4nc(N(C)C5CC6CCC(C5)N6)sc4n3)cc(C#N)c2n1 (stereo not drawn) [Compound 276, 6-{2-[(3-exo)-8-azabicyclo[3.2.1]oct-3-yl(methyl)amino][1,3]thiazolo[5,4-b]pyridin-5-yl}-2-methylimidazo[1,2-a]pyridine-8-carbonitrile] | ≤ 0.1 |
| Cc1cn2cc(-c3ccc4nc(N(C)C5CC6CCC(C5)N6)sc4n3)cc(F)c2n1 (stereo not drawn) [Compound 277, N-[(3-exo)-8-azabicyclo[3.2.1]oct-3-yl]-5-(8-fluoro-2-methylimidazo[1,2-a]pyridin-6-yl)-N-methyl[1,3]thiazolo[5,4-b]pyridin-2-amine] | 0.1 to 0.5 |
| CN(c1nc2ccc(-c3cc(C#N)c4nn(C)cc4c3)nc2s1)C1CC2CCC(C1)N2 (stereo not drawn) [Compound 278, 5-{2-[(3-exo)-8-azabicyclo[3.2.1]oct-3-yl(methyl)amino][1,3]thiazolo[5,4-b]pyridin-5-yl}-2-methyl-2H-indazole-7-carbonitrile] | ≤ 0.1 |
| Cc1cn2cc(-c3ccc4nc(N(C)C5CC6CCCC(C5)N6)sc4n3)cc(C#N)c2n1 (stereo not drawn) [Compound 279, 6-{2-[(3-exo)-9-azabicyclo[3.3.1]non-3-yl(methyl)amino][1,3]thiazolo[5,4-b]pyridin-5-yl}-2-methylimidazo[1,2-a]pyridine-8-carbonitrile] | ≤ 0.1 |
| Cc1cn2cc(-c3ccc4nc(N(C)C5CC6CCCC(C5)N6)sc4n3)cc(F)c2n1 (stereo not drawn) [Compound 280, N-[(3-exo)-9-azabicyclo[3.3.1]non-3-yl]-5-(8-fluoro-2-methylimidazo[1,2-a]pyridin-6-yl)-N-methyl[1,3]thiazolo[5,4-b]pyridin-2-amine] | ≤ 0.1 |
| CN(c1nc2ccc(-c3cc(C#N)c4nn(C)cc4c3)nc2s1)C1CC2CCCC(C1)N2 (stereo not drawn) [Compound 281, 5-{2-[(3-exo)-9-azabicyclo[3.3.1]non-3-yl(methyl)amino][1,3]thiazolo[5,4-b]pyridin-5-yl}-2-methyl-2H-indazole-7-carbonitrile] | ≤ 0.1 |
| CN(c1nc2nnc(-c3ccc(-c4cn[nH]c4)cc3O)cc2s1)C1CCNCC1 [Compound 282, 2-{6-[methyl(piperidin-4-yl)amino][1,3]thiazolo[4,5-c]pyridazin-3-yl}-5-(1H-pyrazol-4-yl)phenol] | ≤ 0.1 |
| CN1CCC(N(C)c2nc3nnc(-c4ccc(-c5cn[nH]c5)cc4O)cc3s2)CC1 [Compound 283, 2-{6-[methyl(1-methylpiperidin-4-yl)amino][1,3]thiazolo[4,5-c]pyridazin-3-yl}-5-(1H-pyrazol-4-yl)phenol] | 0.5 to 1 |
| Cc1cn2cc(-c3ncc4nc(N(C)C5CC6(C)CCC(C)(C5)N6)sc4n3)cc(F)c2n1 [Compound 284, N-[(1R,3s,5S)-1,5-dimethyl-8-azabicyclo[3.2.1]octan-3-yl]-5-(8-fluoro-2-methylimidazo[1,2-a]pyridin-6-yl)-N-methyl[1,3]thiazolo[5,4-d]pyrimidin-2-amine] | ≤ 0.1 |
| Cc1cn2cc(-c3cc4sc(N(C)C5CC6(C)CCC(C)(C5)N6)nc4cn3)cc(C#N)c2n1 [Compound 285, 6-(2-{[(1R,3s,5S)-1,5-dimethyl-8-azabicyclo[3.2.1]octan-3-yl](methyl)amino}[1,3]thiazolo[4,5-c]pyridin-6-yl)-2-methylimidazo[1,2-a]pyridine-8-carbonitrile] | ≤ 0.1 |
| Cc1cn2cc(-c3cc4sc(N(C)C5CC6(C)CCC(C)(C5)N6)nc4cn3)cc(F)c2n1 [Compound 286, N-[(1R,3s,5S)-1,5-dimethyl-8-azabicyclo[3.2.1]octan-3-yl]-6-(8-fluoro-2-methylimidazo[1,2-a]pyridin-6-yl)-N-methyl[1,3]thiazolo[4,5-c]pyridin-2-amine] | ≤ 0.1 |
| CN(c1nc2cnc(-c3cc(C#N)c4nn(C)cc4c3)cc2s1)C1CC2(C)CCC(C)(C1)N2 [Compound 287, 5-(2-{[(1R,3s,5S)-1,5-dimethyl-8-azabicyclo[3.2.1]octan-3-yl](methyl)amino}[1,3]thiazolo[4,5-c]pyridin-6-yl)-2-methyl-2H-indazole-7-carbonitrile] | ≤ 0.1 |
